Test results taken from BindingDB's records for doi:10.1021/np800491u (Korean Research Institute of Biosciences and Biotechnology, 2009).

Test: Inhibition of hypoxia-induced HIF1alpha protein accumulation in human Hep3B cells treated for 30 mins measured after 12 hrs by Western blot analysis

| SMILES | IC50 |
| --- | --- |
| CC1(C)Oc2cc3oc(-c4cc(O)cc(O)c4)cc3cc2C[C@H]1O [(-)-Moracin P] | 0.65 nM |
| CC1=C[C@H]2c3c(O)cc(-c4cc5ccc(O)cc5o4)cc3O[C@@]3(c4ccc(O)cc4O)Oc4cc(O)ccc4[C@H](C1)[C@@H]23 [CHEBI:2544] | 2600 nM |
| COc1c(O)cc2oc(-c3cc(O)cc(O)c3)cc2c1CC(=O)C(C)C [Moracin Q] | 5880 nM |
| C[C@@]12C=C(c3c(O)cc(-c4cc5ccc(O)cc5o4)cc3O)C[C@@H](C1)c1ccc(O)cc1O2 [Mulberrofuran H] | 140 nM |
| CC(C)=CC[C@@]12Oc3cc(O)c([C@H]4C=C(C)C[C@H](c5ccc(O)cc5O)[C@H]4C(=O)c4ccc(O)cc4O)c(O)c3C(=O)[C@]1(O)Oc1cc(O)ccc12 [Sanggenon O] | 1030 nM |
| CC(C)=CCC/C(C)=C/Cc1c(O)cc(O)cc1-c1cc2ccc(O)cc2o1 [albafuran A] | 3510 nM |
| Oc1cc(O)cc(-c2cc3ccc(O)cc3o2)c1 [moracin M] | > 50000 nM |
| CC(C)(O)C1Cc2cc3cc(-c4cc(O)cc(O)c4)oc3cc2O1 (stereo unspecified) [moracin O] | 0.14 nM |
| CC(C)=CCC/C(C)=C/Cc1c(O)ccc2cc(-c3cc(O)cc(O)c3CC=C(C)C)oc12 [mulberrofuran D] | 4050 nM |
| CC(C)=CCC/C(C)=C\CC/C(C)=C\Cc1c(O)cc(O)cc1-c1cc2ccc(O)cc2o1 [mulberrofuran W] | 3620 nM |
| CC(C)=CC[C@]12Oc3cc(O)c([C@H]4C=C(C)C[C@H](c5ccc(O)cc5O)[C@H]4C(=O)c4ccc(O)cc4O)c(O)c3C(=O)[C@@]1(O)Oc1cc(O)ccc12 [sanggenon C] | 1260 nM |
